From PubChem BioAssay (NCI)
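Briefly, cells in 96-well plates were exposed to five compound concentrations for 48 h, and endpoints were estimated by linear interpolation. TGI: total growth inhibition.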

Tests used:
Test in all cases: NCI anticancer screen, dose series, 48 h
[1] = system: RXF 393 renal
[2] = system: NCI/ADR-RES ovarian
[3] = system: SNB-19 CNS
[4] = system: OVCAR-4 ovarian
[5] = system: HS 578T breast
[6] = system: 786-0 renal
[7] = system: HOP-62 NSCLC
[8] = system: MDA-MB-435
[9] = system: SF-295 CNS
[10] = system: CAKI-1 renal
[11] = system: K-562 leukemia
[12] = system: SK-MEL-2 melanoma
[13] = system: SK-MEL-28 melanoma
[14] = system: MOLT-4 leukemia
[15] = system: HCT-15 colon
[16] = system: SW-620 colon
[17] = system: T-47D breast
[18] = system: COLO 205 colon
[19] = system: SK-OV-3 ovarian
[20] = system: HCC-2998 colon
[21] = system: HT29 colon
[22] = system: OVCAR-8 ovarian
[23] = system: LOX IMVI melanoma
[24] = system: NCI-H460 lung
[25] = system: M14 melanoma
[26] = system: HCT-116 colon
[27] = system: PC-3 prostate
[28] = system: UO-31 renal
[29] = system: U251 CNS
[30] = system: SR leukemia
[31] = system: BT-549 breast
[32] = system: EKVX NSCLC
[33] = system: NCI-H226 lung
[34] = system: HOP-92 NSCLC
[35] = system: MDA-MB-231 breast
[36] = system: MCF7 breast
[37] = system: NCI-H23 lung
[38] = system: SNB-75 CNS
[39] = system: SK-MEL-5 melanoma
[40] = system: UACC-257 melanoma
[41] = system: DU-145 prostate
[42] = system: SF-268 CNS
[43] = system: KM12 colon
[44] = system: HL-60(TB) leukemia
[45] = system: CCRF-CEM leukemia
[46] = system: SF-539 CNS
[47] = system: A498 renal
[48] = system: ACHN renal
[49] = system: RPMI-8226 leukemia
[50] = system: IGROV1 ovarian
[51] = system: UACC-62 melanoma
[52] = system: TK-10 renal
[53] = system: NCI-H522 lung
[54] = system: OVCAR-5 ovarian
[55] = system: SN12C renal
[56] = system: OVCAR-3 ovarian
[57] = system: MALME-3M melanoma
[58] = system: A549 NSCLC

Compound: CC1=NN(c2nc(N)nc(COc3ccc(N)cc3)n2)C(C)(C)C1
- TGI [1]: > 100 µM
- TGI [2]: > 100 µM
- TGI [3]: > 100 µM
- TGI [4]: > 100 µM
- TGI [5]: > 100 µM
- TGI [6]: > 100 µM
- TGI [7]: > 100 µM
- TGI [8]: > 100 µM
- TGI [9]: > 100 µM
- TGI [10]: > 100 µM
- TGI [11]: > 100 µM
- TGI [12]: > 100 µM
- TGI [13]: > 100 µM
- TGI [14]: > 100 µM
- TGI [15]: > 100 µM
- TGI [16]: > 100 µM
- TGI [17]: > 100 µM
- TGI [18]: > 100 µM
- TGI [19]: > 100 µM
- TGI [20]: > 100 µM
- TGI [21]: > 100 µM
- TGI [22]: > 100 µM
- TGI [23]: > 100 µM
- TGI [24]: > 100 µM
- TGI [25]: > 100 µM
- TGI [26]: > 100 µM
- TGI [27]: > 100 µM
- TGI [28]: > 100 µM
- TGI [29]: > 100 µM
- TGI [30]: > 100 µM
- TGI [31]: > 100 µM
- TGI [32]: > 100 µM
- TGI [33]: > 100 µM
- TGI [34]: > 100 µM
- TGI [35]: > 100 µM
- TGI [36]: > 100 µM
- TGI [37]: > 100 µM
- TGI [38]: > 100 µM
- TGI [39]: > 100 µM
- TGI [40]: > 100 µM
- TGI [41]: > 100 µM
- TGI [42]: > 100 µM
- TGI [43]: > 100 µM
- TGI [44]: > 100 µM
- TGI [45]: > 100 µM
- TGI [46]: > 100 µM
- TGI [47]: > 100 µM
- TGI [48]: > 100 µM
- TGI [49]: > 100 µM
- TGI [50]: > 100 µM
- TGI [51]: > 100 µM
- TGI [52]: > 100 µM

Compound: Oc1ccc(NCn2c(=S)sc3ccccc32)cc1
- TGI [53]: 40.5 µM
- TGI [1]: > 100 µM
- TGI [2]: > 100 µM
- TGI [3]: > 100 µM
- TGI [4]: > 100 µM
- TGI [5]: > 100 µM
- TGI [7]: > 100 µM
- TGI [8]: > 100 µM
- TGI [9]: > 100 µM
- TGI [10]: > 100 µM
- TGI [11]: > 100 µM
- TGI [12]: > 100 µM
- TGI [13]: > 100 µM
- TGI [54]: > 100 µM
- TGI [14]: > 100 µM
- TGI [15]: > 100 µM
- TGI [16]: > 100 µM
- TGI [17]: > 100 µM
- TGI [18]: > 100 µM
- TGI [19]: > 100 µM
- TGI [55]: > 100 µM
- TGI [56]: > 100 µM
- TGI [20]: > 100 µM
- TGI [21]: > 100 µM
- TGI [22]: > 100 µM
- TGI [23]: > 100 µM
- TGI [24]: > 100 µM
- TGI [25]: > 100 µM
- TGI [26]: > 100 µM
- TGI [27]: > 100 µM
- TGI [28]: > 100 µM
- TGI [29]: > 100 µM
- TGI [31]: > 100 µM
- TGI [32]: > 100 µM
- TGI [57]: > 100 µM
- TGI [34]: > 100 µM
- TGI [35]: > 100 µM
- TGI [36]: > 100 µM
- TGI [37]: > 100 µM
- TGI [38]: > 100 µM
- TGI [39]: > 100 µM
- TGI [40]: > 100 µM
- TGI [41]: > 100 µM
- TGI [42]: > 100 µM
- TGI [43]: > 100 µM
- TGI [44]: > 100 µM
- TGI [45]: 92 µM
- TGI [46]: > 100 µM
- TGI [47]: > 100 µM
- TGI [48]: > 100 µM
- TGI [49]: > 100 µM
- TGI [50]: > 100 µM
- TGI [51]: > 100 µM
- TGI [52]: > 100 µM
- TGI [58]: > 100 µM
